{
  "source": "patent US11291655B2",
  "about": "“RAD51 inhibitors” (Cyteir Therapeutics, Inc., priority 2017, dated 2022)",
  "data": [
    {"tested_on": "Daudi Cell Culture", "assay": "Compound primary screening in Daudi cell culture", "type": "cell-based", "conditions": "Homo sapiens, 168 h; Daudi cells, 1250 cells per well, reads on Day 7", "in_short": "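Daudi cells seeded at 1250 cells per well in 130 ul medium at 37° C. and treated with serially diluted compounds added from a media master plate; read on Day 7.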", "units": {"EC50": "µM"}, "values": [
      {"smiles": "CC(C)OC(=O)Nc1ccc(-c2ncc(-c3ccc(CNC(=O)c4ccncc4)cc3S(=O)(=O)NC(C)(C)C)s2)cc1", "note": "[Compound O7]", "EC50": "< 5"},
      {"smiles": "CC(C)NC(=S)Nc1ccc(-c2ncc(-c3ccc(Nc4nccn4C)cc3S(N)(=O)=O)s2)cc1", "note": "[Compound E19]", "EC50": "> 10"},
      {"smiles": "CC(=O)N(C)c1ccc(-c2cnc(-c3ccc(NC(=S)NC(C)C)cc3)s2)c(S(=O)(=O)NC(C)(C)C)c1", "note": "[Compound E15]", "EC50": "> 10"},
      {"smiles": "CCNc1ccc(-c2cnc(-c3ccc(NC(=O)OC(C)C)cc3)s2)c(S(=O)(=O)NC(C)(C)C)c1", "note": "[Compound I1, isopropyl N-[4-[5-[2-(tert-butylsulfamoyl)-4-(ethylamino)phenyl]thiazol-2-yl]phenyl]carbamate]", "EC50": "< 5"},
      {"smiles": "CC(=O)Nc1ccc(-c2cnc(-c3ccc(NC(=S)NC(C)C)cc3)s2)c(S(=O)(=O)N2C3CCC2CC3)c1", "note": "[Compound D22]", "EC50": "< 1"},
      {"smiles": "COC(=O)[C@H](Cc1ccccc1)NS(=O)(=O)c1cc(NC(C)=O)ccc1-c1cnc(-c2ccc(NC(=S)NC(C)C)cc2)s1", "note": "[Compound D1]", "EC50": "> 10"},
      {"smiles": "CC(=O)Nc1ccc(-c2cnc(-c3ccc(NC(=S)NC(C)C)cc3)s2)c(S(=O)(=O)N2CCCCC2)c1", "note": "[Compound D14]", "EC50": "> 10"},
      {"smiles": "CC(=O)Nc1ccc(-c2cnc(-c3ccc(NC(=S)NC(C)C)cc3)s2)c(S(=O)(=O)N[C@@H](C)CO)c1", "note": "[Compound D5]", "EC50": "> 10"},
      {"smiles": "CC(C)OC(=O)Nc1ccc(-c2ncc(-c3ccc(NC(C)C(F)(F)F)cc3S(=O)(=O)NC(C)(C)C)s2)cc1", "note": "(stereo not drawn) [Compound J3, isopropyl N-[4-[5-[2-(tert-butylsulfamoyl)-4-[(2,2,2-trifluoro-1-methyl-ethyl)amino]phenyl]thiazol-2-yl]phenyl]carbamate]", "EC50": "< 5"},
      {"smiles": "CC(C)OC(=O)Nc1ccc(-c2ncc(-c3ccc(NC(=O)C4CC4)cc3S(=O)(=O)NC(C)(C)C)s2)cc1", "note": "[Compound H3]", "EC50": "< 5"},
      {"smiles": "CC(=O)Nc1ccc(-c2cnc(-c3ccc(NC(=S)NC(C)C)cc3)s2)c(S(=O)(=O)NCCCN)c1", "note": "[Compound D24]", "EC50": "> 10"},
      {"smiles": "Cn1ccnc1Nc1ccc(-c2cnc(-c3ccc(N)cc3)s2)c(S(N)(=O)=O)c1", "note": "[Compound E18]", "EC50": "> 10"},
      {"smiles": "CC(C)NC(=S)Nc1ccc(-c2ncc(-c3ccc(NC(=O)NCc4cnc[nH]4)cc3S(=O)(=O)NC(C)(C)C)s2)cc1", "note": "[Compound N6]", "EC50": "< 10"},
      {"smiles": "CC(=O)Nc1ccc(-c2cnc(-c3ccc(NC(=S)NC(C)C)cc3)s2)c(S(=O)(=O)NCCN(C)C)c1", "note": "[Compound D16]", "EC50": "> 10"},
      {"smiles": "CC(=O)Nc1ccc(-c2cnc(-c3ccc(NC(=S)NC(C)C)cc3)s2)c(S(=O)(=O)NCc2ccncc2)c1", "note": "[Compound D12]", "EC50": "> 10"},
      {"smiles": "CC(=O)Nc1ccc(-c2cnc(-c3ccc(N)cc3)s2)c(S(=O)(=O)NC(C)(C)C)c1", "note": "[Compound A4]", "EC50": "< 10"},
      {"smiles": "CC(=O)Nc1ccc(-c2cnc(-c3ccc(NS(C)(=O)=O)cc3)s2)c(S(=O)(=O)NC(C)(C)C)c1", "note": "[Compound G5]", "EC50": "> 10"},
      {"smiles": "CCNS(=O)(=O)c1cc(NC(C)=O)ccc1-c1cnc(-c2ccc(NC(=S)NC(C)C)cc2)s1", "note": "[Compound D9]", "EC50": "> 10"},
      {"smiles": "COC(=O)Nc1ccc(-c2cnc(-c3ccc(NC(=O)OC(C)C)cc3)s2)c(S(=O)(=O)NC(C)(C)C)c1", "note": "[Compound H7]", "EC50": "< 1"},
      {"smiles": "CC(C)OC(=O)Nc1ccc(-c2ncc(-c3ccc(CNC(=O)Cc4ccccc4)cc3S(=O)(=O)NC(C)(C)C)s2)cc1", "note": "[Compound O4]", "EC50": "< 10"},
      {"smiles": "CC(C)OC(=O)Nc1ccc(-c2ncc(-c3ccc(NC(=O)OCCN)cc3S(=O)(=O)NC(C)(C)C)s2)cc1", "note": "[Compound B13]", "EC50": "< 5"},
      {"smiles": "CC(C)NC(=S)Nc1ccc(-c2ncc(-c3ccc(Nc4nccn4C)cc3S(=O)(=O)NC(C)(C)C)s2)cc1", "note": "[Compound E17]", "EC50": "> 10"},
      {"smiles": "COc1cc(-c2ncc(-c3ccc(NC(=O)OCc4ccccc4)cc3S(=O)(=O)NC(C)(C)C)s2)ccc1NC(=O)OC(C)C", "note": "[Compound R7]", "EC50": "< 1"},
      {"smiles": "CCOC(=O)NCc1ccc(-c2cnc(-c3ccc(NC(=O)OC(C)C)cc3)s2)c(S(=O)(=O)NC(C)(C)C)c1", "note": "[Compound P8]", "EC50": "< 10"},
      {"smiles": "CC(C)OC(=O)Nc1ccc(-c2ncc(-c3ccc(C(F)(F)F)cc3S(=O)(=O)NC(C)(C)C)s2)cc1", "note": "[Compound J6]", "EC50": "< 10"},
      {"smiles": "CC(C)OC(=O)Nc1ccc(-c2ncc(-c3ccc(NC(=O)NCc4ccccc4)cc3S(=O)(=O)NC(C)(C)C)s2)cc1", "note": "[Compound A2]", "EC50": "< 1"},
      {"smiles": "CC(C)(C)NS(=O)(=O)c1cc(Nc2nccs2)ccc1-c1cnc(-c2ccc(N)cc2)s1", "note": "[Compound E12]", "EC50": "> 10"},
      {"smiles": "CC(=O)Nc1ccc(-c2cnc(-c3ccc(N4CCOC4=O)cc3)s2)c(S(=O)(=O)NC(C)(C)C)c1", "note": "[Compound J19, N-[3-(tert-butylsulfamoyl)-4-[2-[4-(2-oxooxazolidin-3-yl)phenyl]thiazol-5-yl]phenyl]acetamide]", "EC50": "> 10"},
      {"smiles": "CC(=O)Nc1ccc(-c2cnc(-c3ccc(NC(=O)OC(C)C)nc3)s2)c(S(=O)(=O)NC(C)(C)C)c1", "note": "[Compound J5]", "EC50": "< 1"},
      {"smiles": "CC(C)OC(=O)Nc1ccc(-c2ncc(-c3ccc(NC(=O)OC(C)C)cc3S(=O)(=O)NC(C)(C)C)s2)cc1", "note": "[Compound H8]", "EC50": "< 1"},
      {"smiles": "CC(C)OC(=O)Nc1ccc(-c2ncc(-c3ccc(NC(=O)OC(C)c4ccccc4)cc3S(=O)(=O)NC(C)(C)C)s2)cc1", "note": "(stereo not drawn) [Compound B15]", "EC50": "< 1"},
      {"smiles": "CC(C)NC(=S)Nc1ccc(-c2ncc(-c3ccc(NC(=O)c4ccccc4)cc3S(=O)(=O)NC(C)(C)C)s2)cc1", "note": "[Compound L6]", "EC50": "< 5"},
      {"smiles": "CC(C)OC(=O)Nc1ccc(-c2ncc(-c3ccc(NC(=O)NC(C)c4ccccc4)cc3S(=O)(=O)NC(C)(C)C)s2)cc1", "note": "(stereo not drawn) [Compound C1]", "EC50": "< 1"},
      {"smiles": "CC(C)NC(=S)Nc1ccc(-c2ncc(-c3ccc(N4CCN(Cc5ccccc5)C4=O)cc3S(=O)(=O)NC(C)(C)C)s2)cc1", "note": "[Compound J22]", "EC50": "> 10"},
      {"smiles": "CC(C)OC(=O)Nc1ccc(-c2ncc(-c3ccc(NS(C)(=O)=O)cc3S(=O)(=O)NC(C)(C)C)s2)cc1", "note": "[Compound H11]", "EC50": "> 10"},
      {"smiles": "CC(C)OC(=O)Nc1ccc(-c2ncc(-c3ccc(N(C)S(C)(=O)=O)cc3S(=O)(=O)NC(C)(C)C)s2)cc1", "note": "[Compound J18]", "EC50": "< 5"},
      {"smiles": "Cc1cc(NC(=O)OC(C)C)ccc1-c1ncc(-c2ccc(NC(=O)OC(C)C)cc2S(=O)(=O)NC(C)(C)C)s1", "note": "[Compound R1]", "EC50": "< 1"},
      {"smiles": "CC(C)NC(=O)Nc1ccc(-c2ncc(-c3ccc(N4CCCC4=O)cc3S(=O)(=O)NC(C)(C)C)s2)cc1", "note": "[Compound J7]", "EC50": "< 10"},
      {"smiles": "CC(C)NC(=S)Nc1ccc(-c2ncc(-c3ccc(NC(=O)N(C)Cc4ccccc4)cc3S(=O)(=O)NC(C)(C)C)s2)cc1", "note": "[Compound M1]", "EC50": "> 10"}
    ]}
  ]
}
